The source of these data is US7326710B2, “Aralkyl formyl-alkyl piperazine derivatives and their uses as a cerebral nerve protective agent” (Shanghai Institute of Pharmaceutical Industry, priority 2002, dated 2008).

Holding throughout (type): in vivo
For experiment [1], the system named is focal cerebral ischemia in rats. The experiment can be described thus: Focal cerebral infarction, electrical coagulation to occlude MCA. Further details: The neurological deficit score After the operation / The neurological deficit score 24 h: scale not given here. The conditions noted are these: Nimodipine, dose not given. As to the method: a. The Focal Cerebral-Infarction of Using Electrical Coagulation to Occlude MCA:
For the 5 mg/kg group, the percentage of the rat's infarct size was decreased, but the difference is not significant (p=0.098). The effect is not significant for the Nimodipine mg/kg.

In experiment [2] the test system is global cerebral ischemia-reperfusion injury in rats. Description: Global cerebral ischemia-reperfusion in rats, four arteries reversible occlusion. The conditions noted are these: Nimodipine 1 mg/kg. From the text: The effect of IV-23 on cerebral ischemia-reperfusion in rats was studied using four arteries reversible occlusion by measuring the recovering time of the electroencephalogram and the righting reflex (a short time indicates a strong effect).

Experiment [3] relates to global cerebral ischemia in rats. The experiment can be described thus: Global cerebral ischemia in rats, bilateral common carotid artery occlusion with exsanguine hypotension. The conditions noted are these: Nimodipine 1 mg/kg positive control, reperfusion after 10 min occlusion. From the text: The animal models of the bilateral common carotid artery occlusion with exsanguine hypotension in the rats were used to investigate the effect against global cerebral ischemia.
Methods: The animals were administrated four compounds (IV-2, 23, 34, 36) orally for 3 days before the experiment. […]

Experiment [4] relates to focal cerebral ischemia in rats. Description: Focal cerebral ischemia in rats by occlusion of middle cerebral artery (MCA). The conditions noted are these: 20 mg/kg p.o. As for the experimental part:
The focal ischemia rat model by occlusion of middle cerebral artery (MCA) was used to determine the protective effects of the compounds on focal cerebral ischemia. The infarct size after focal cerebral ischemia and the weight percentage of cerebral hemisphere were calculated to evaluate the compounds' effects on focal cerebral ischemia.

Molecules are shown by their SMILES.

In the case of `COCCOC(=O)C1=C(C)NC(C)=C(C(=O)OC(C)C)C1c1cccc([N+](=O)[O-])c1` (centres unmarked) [Nimodipine, reference compound], in experiment [1], the “The neurological deficit score 24 h” value is 8.3 ± 2.0, the “The neurological deficit score After the operation” value came out at 9.7 ± 0.5, the “The percentage of infarction (%)” value amounted to 20.5 ± 6.8 % and the “The weight of infarct area” value is reported as 0.15 ± 0.05 g. In experiment [2], the “Time for electroencephalogram to disappear(S)” value was 396.0 ± 559.8^Δ S, the “Time for electroencephalogram to recover (S)” value is 3264.0 ± 336.4^Δ S and the “Time for righting reflex to recover (S)” value was 1284.0 ± 1319.8^Δ S. For the same molecule, in experiment [3], the “Recovery time of EEG” value stood at 13.49 ± 5.55 min. In experiment [4], the “Infarct volume” value was determined as 0.188 ± 0.013 g and the “Neurological deficit After operation” value turned out to be 9.3 ± 1.7. Also, the “Neurological deficit 24 h” value in experiment [4] (24 h after operation) came to 9.0 ± 4.1.
